Measured values taken from publication PMC6810216, “Human-to-Human Transmission of Influenza A(H3N2) Virus with Reduced Susceptibility to Baloxavir, Japan, February 2019” (Emerging Infectious Diseases, 2019).

Experiments:
[1] = system: A/Kanagawa/IC18141/2019, influenza A(H3N2) virus carrying polymerase acidic I38T substitution; type: cell-based
[2] = system: mutant influenza A(H3N2) viruses encoding the polymerase acidic I38T substitution; conditions: human, in vivo
[3] = target: neuraminidase (NA) of A/Kanagawa/IC18141/2019 (Influenza A virus (H3N2), UniProt A0A193ACB1); type: biochemical

SMILES | IC50 [1] | fold higher IC50 value compared with the median IC50 of A(H3N2) viruses of the 2018–19 season [1] | time to fever resolution after administration [2] | IC50 [3] | NA inhibitor susceptibility by WHO criteria (fold change in IC50 vs median of same-season isolates) [3]
O=C1c2c(O)c(=O)ccn2N([C@@H]2c3ccccc3SCc3c2ccc(F)c3F)[C@@H]2COCCN12 [Baloxavir, baloxavir acid] | 0.236 µM | 186 fold | within a half day | – | –
CCC(CC)[C@H](NC(C)=O)[C@@H]1[C@H](O)[C@@H](C(=O)O)C[C@H]1N=C(N)N [Peramivir, peramivir] | – | – | – | 0.00018 µM | 0.18 (NI) (key: NI: normal (<10-fold increase); reduced (10–100-fold increase); highly reduced (>100-fold increase))
